Measurements as given in the supplement of paper PMC4862054.

Assays:
Experiment in all cases: drug sensitivity score (DSS), CellTiter-Glo (DSS (AUC-based score)); higher = stronger drug effect (viability inhibition or cytotoxicity); extreme values may be limits of the assay
Conditions in all cases: incubation time: 72 h
MCF-10A = test system: MCF-10A
Method in brief: (§1)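 Breast cancer cells were seeded into 384-well plates containing compound at 5 concentrations in 10-fold steps over a compound-specific 10,000-fold range and incubated 72 h. After CellTox Green and CellTiter-Glo readings, each plate was normalised to 0.1 % DMSO and a positive kill control. The drug sensitivity score rests on the area under the fitted dose-response curve.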

BT-549 = test system: BT-549
Method in brief: as §1

MDA-MB-453 = test system: MDA-MB-453
Method in brief: as §1

CAL-120 = test system: CAL-120
Method in brief: as §1

CAL-148 = test system: CAL-148
Method in brief: as §1

HCC1599 = test system: HCC1599
Method in brief: as §1

CAL-85-1 = test system: CAL-85-1
Method in brief: as §1

HCC1937 = test system: HCC1937
Method in brief: as §1

BT-474 = test system: BT-474
Method in brief: as §1

MDA-MB-468 = test system: MDA-MB-468
Method in brief: as §1

MDA-MB-231 = test system: MDA-MB-231
Method in brief: as §1

HDQ-P1 = test system: HDQ-P1
Method in brief: as §1

DU-4475 = test system: DU-4475
Method in brief: as §1

CAL-51 = test system: CAL-51
Method in brief: as §1

HCC1143 = test system: HCC1143
Method in brief: as §1

SK-BR-3 = test system: SK-BR-3
Method in brief: as §1

Hs578T = test system: Hs578T
Method in brief: as §1

MDA-MB-436 = test system: MDA-MB-436
Method in brief: as §1

MFM-223 = test system: MFM-223
Method in brief: as §1

| SMILES | drug sensitivity score (MCF-10A) | drug sensitivity score (BT-549) | drug sensitivity score (MDA-MB-453) | drug sensitivity score (CAL-120) | drug sensitivity score (CAL-148) | drug sensitivity score (HCC1599) | drug sensitivity score (CAL-85-1) | drug sensitivity score (HCC1937) | drug sensitivity score (BT-474) | drug sensitivity score (MDA-MB-468) | drug sensitivity score (MDA-MB-231) | drug sensitivity score (HDQ-P1) | drug sensitivity score (DU-4475) | drug sensitivity score (CAL-51) | drug sensitivity score (HCC1143) | drug sensitivity score (SK-BR-3) | drug sensitivity score (Hs578T) | drug sensitivity score (MDA-MB-436) | drug sensitivity score (MFM-223) |
| --- | --- | --- | --- | --- | --- | --- | --- | --- | --- | --- | --- | --- | --- | --- | --- | --- | --- | --- | --- |
| CC1(C)CCC(CN2CCN(c3ccc(C(=O)NS(=O)(=O)c4ccc(NCC5CCOCC5)c([N+](=O)[O-])c4)c(Oc4cnc5[nH]ccc5c4)c3)CC2)=C(c2ccc(Cl)cc2)C1 [ABT-199] | 0 | 0 | 0 | 0 | 0 | 0 | 0 | 0 | 0 | 0.128 | 0 | 0 | 0 | 1.71 | 0 | 0 | 0 | 0 | 0 |
| Cn1cc(C2=Nc3cc(NC(=O)C(N)C4CCCCC4)cc4c3C2=CNNC4=O)cn1 (stereo not given) | 2.96 | 14.6 | 14.3 | 6.28 | 0 | 20.3 | 13.3 | 4.78 | 6.46 | 14.4 | 7.52 | 3.25 | 2.68 | 5.76 | 7.81 | 19.1 | 12.1 | 9.88 | 12.2 |
| CC(=O)O[C@@]12CO[C@@H]1C[C@H](O)[C@@]1(C)C(=O)[C@H](O)C3=C(C)[C@@H](OC(=O)[C@H](O)[C@@H](NC(=O)OC(C)(C)C)c4ccccc4)C[C@@](O)([C@@H](OC(=O)c4ccccc4)[C@H]21)C3(C)C [Docetaxel] | 20.4 | 30.5 | 14.8 | 13.3 | 20.5 | 16.7 | 25.6 | 10.6 | 15.6 | 27.3 | 19.4 | 10.6 | 15.1 | 19.5 | 23.7 | 31.4 | 27.2 | 22 | 16.7 |
| Oc1ncnc2[nH]ncc12 [Allopurinol] | 0 | 0 | 0 | 0 | 0 | 0 | 0 | 0 | 0 | 0 | 0 | 0 | 0 | 0 | 0 | 0 | 0 | 0 | 0 |
| Cc1ccc([N+](=O)[O-])cc1S(=O)(=O)N(C)/N=C/c1cnc2ccc(Br)cn12 [PIK-75] | 28.4 | 29 | 23 | 22.4 | 19 | 23.1 | 29 | 24 | 28.5 | 30.2 | 30.5 | 25.5 | 29.1 | 30 | 24 | 30.4 | 29 | 27.1 | 26 |
| CC(=O)N(O)CCCCCNC(=O)CCC(=O)N(O)CCCCCNC(=O)CCC(=O)N(O)CCCCCN [Deferoxamine] | 0 | 5.68 | 0 | 0 | 9.03 | 1.95 | 0 | 3.29 | 0 | 7.85 | 0 | 2.75 | 5.21 | 3.33 | 3.11 | 4.14 | 2.31 | 4.73 | 0 |
| CC(=O)c1c(C)c2cnc(Nc3ccc(N4CCNCC4)cn3)nc2n(C2CCCC2)c1=O [Palbociclib] | 3.99 | 0 | 0 | 3.04 | 0 | 0 | 0 | 0 | 4.46 | 4.56 | 0 | 0 | 0 | 0.79 | 0 | 5.42 | 0.478 | 0 | 5.89 |
| O=C1CN2Cc3c(ccc(Cl)c3Cl)N=C2N1 [Anagrelide] | 0 | 0 | 0 | 0 | 0 | 0 | 0 | 0 | 0.269 | 0 | 0 | 0 | 0 | 0.565 | 0 | 0 | 1.32 | 0 | 0 |
| Cn1cnc2c(F)c(Nc3ccc(Br)cc3Cl)c(C(=O)NOCCO)cc21 [Selumetinib] | 17.3 | 0.661 | 0 | 3 | 0 | 0.803 | 0 | 0 | 7.93 | 2.35 | 5.56 | 11.1 | 19.9 | 0 | 0 | 0 | 0 | 0.63 | 0 |
| CC1=C2C[C@H]3[C@@H](CC=C4C[C@@H](O)CC[C@@]43C)[C@@H]2CC[C@]12O[C@@H]1C[C@H](C)CN[C@H]1[C@H]2C [Cyclopamine] | 0 | 0 | 0 | 0 | 0 | 0 | 0 | 0 | 0 | 0 | 0 | 0 | 0 | 0 | 0 | 0 | 0 | 0 | 0 |
| COc1cc2c(cc1O)CC[C@@H]1[C@@H]2CC[C@]2(C)[C@@H](O)CC[C@@H]12 [2-methoxyestradiol] | 0 | 10.1 | 5.52 | 4.15 | 2.17 | 2.6 | 5.61 | 0 | 5.9 | 4.21 | 5.78 | 0.369 | 2.41 | 5.34 | 3.67 | 5.71 | 7.49 | 6.35 | 4.75 |
| C[C@]1(O)C[C@@H](c2nc(-c3ccc4ccc(-c5ccccc5)nc4c3)c3c(N)nccn32)C1 [Linsitinib] | 12.5 | 0 | 2.26 | 1.76 | 0 | 2.37 | 2.88 | 0 | 3.89 | 4.62 | 0 | 5.33 | 0 | 0 | 1.82 | 6.62 | 0 | 0.173 | 0 |
| O=NN(CCCl)C(=O)NCCCl [Carmustine] | 0 | 0 | 0 | 0 | 0 | 0 | 0 | 0 | 0 | 0 | 0 | 0 | 0 | 0 | 0 | 0 | 0 | 0 | 0 |
| Cc1sc2c(c1C)C(c1ccc(Cl)cc1)=N[C@@H](CC(=O)OC(C)(C)C)c1nnc(C)n1-2 [(+)JQ1] | 9.62 | 13.3 | 10.7 | 4.19 | 6.21 | 0 | 12.7 | 3.6 | 7.3 | 9.62 | 3.61 | 6.56 | 9.61 | 1.66 | 5.11 | 5.66 | 12.8 | 2.63 | 8.38 |
| CC1(C)CNc2cc(NC(=O)c3cccnc3NCc3ccncc3)ccc21 [Motesanib] | 0 | 0 | 0 | 0 | 0 | 0 | 0 | 0 | 0 | 0.164 | 0 | 0 | 0 | 0 | 0 | 0 | 0 | 0 | 0 |
| CC[C@@H]1C(=O)OC[C@@H]1Cc1cncn1C [Pilocarpine] | 0 | 0 | 0 | 0 | 0 | 0 | 0 | 0 | 0 | 0 | 0 | 0 | 0 | 0 | 0 | 0 | 0 | 0 | 0 |
| CC(C)(C)c1cnc(CSc2cnc(NC(=O)C3CCNCC3)s2)o1 [SNS-032] | 18.6 | 27 | 17.7 | 14.8 | 10.3 | 18.5 | 25.1 | 17.2 | 17.8 | 28.1 | 25.3 | 21.6 | 18.9 | 28.6 | 24.3 | 25.6 | 21.8 | 23.7 | 17.1 |
| Nc1nc2[nH]cnc2c(=S)[nH]1 [Thioguanine] | 0 | 1.98 | 1.4 | 6.5 | 1.29 | 5.01 | 6.09 | 8.45 | 12 | 1.72 | 10.2 | 7.16 | 4.33 | 5.29 | 0.8 | 0 | 6.84 | 4.37 | 0 |
| C[C@]12CC[C@@H]3c4ccc(OC(=O)N(CCCl)CCCl)cc4CC[C@H]3[C@@H]1CC[C@@H]2O [Estramustine] | 0 | 0 | 0 | 0 | 0 | 0 | 0 | 0 | 0 | 0.683 | 0 | 0 | 0 | 2.19 | 0 | 0 | 0 | 0 | 0 |
| Nc1ncn([C@@H]2O[C@H](CO)[C@@H](O)[C@H]2O)c(=O)n1 [Azacitidine] | 0 | 5.75 | 0 | 0 | 0 | 1.27 | 0 | 0 | 1.74 | 12.1 | 0 | 2.36 | 0 | 0 | 0 | 0 | 0 | 4.78 | 0 |
